The record followed here is patent US9474790B2, “Stable, protracted GLP-1/glucagon receptor co-agonists for medical use” (Novo Nordisk A/S, priority 2013, dated 2016).

Numbered stars: 1 amine (or outer) side, 2 acyl side, 3 side chain; on linkers, the order of the positions; unused ones are H or OH. Square brackets hold non-standard residues; d marks the D form. Side chains are listed from the residue outwards. Peptide text beside a SMILES is read from it. * marks the point of attachment. C18 diacid = O=C(O)CCCCCCCCCCCCCCCCC(=O)*; γGlu = O=C(O)[C@H](CCC(=O)[*:2])N[*:1]; Ac4c = NC1(C(=O)O)CCC1; AEEA = NCCOCCOCC(=O)O; Aib = CC(C)(N)C(=O)O

One data set deals with T1, human GLP-1 receptor (Homo sapiens, UniProt P43220).
T1 construct: expressed in transfected cells; host or cells: BHK cells (parent BHKTS13), clone FCW467-12A/KZ10-1, with CRE luciferase
Kind of data set: GLP-1 receptor binding, 125I-GLP-1 displacement SPA on isolated membranes. The settings on record: displacement of 125I-GLP-1 from membranes; read-out: IC50 GLP-1R. In short, it runs like this:
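Test derivatives, serially diluted, competed with 125I-GLP-1(7-36)NH2 for the human GLP-1 receptor on BHK membranes, read by WGA-bead scintillation proximity after 2 h at 30°C, pH 7.4 HEPES/EGTA/MgCl2 buffer. Final serum albumin was either ≤0.001% or 2.0%; IC50 from non-linear fit.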
On the technique in general: Displacement assays read how much labelled ligand stays bound in the presence of the test substance.

Data set [1] is described as follows: Chemical stability assessment by RP-UPLC. It counts as physicochemical. The settings on record: 333 μM, 8 mM phosphate buffer pH 7.3, 37° C. vs 5° C. How it is done:
The purpose of this assay was to assess the chemical stability of the glucagon derivatives of the invention in aqueous solutions.
Chemical stability of glucagon derivatives or analogues was investigated by RP-UPLC separation and UV detection. Lyophilized samples were dissolved in a 8 mM Phosphate buffer pH 8.6, followed by adjustment to pH 7.3.using HCl to a final concentration of 333 μM. Samples were incubated for 14 days at 5° C. and 37° C. followed by RP-UPLC analysis. Purity was defined as the area percentage of the main peak in relation to the total area of all integrated peaks in each chromatogram. Purity loss after 14 days at 37° C. was determined as the difference in purity between the samples incubated at 5° C. and 37° C., divided by the purity of the sample after incubation for 14 days at 5° C.
RP-UPLC analysis was performed using a Waters BEH130 2.1 mm×150 mm, 1.7 μm column operated at 50° C. and a flow rate of 0.4 mL/min using a mobile phase system consisting of A: 0.05% TFA in MQ-water B: 0.05% TFA in Acetonitrile. UV-detection was performed at 215 nm. The typical gradient profile used for most of the samples is shown below.
For some individual derivatives or analogues eluting at substantially different retention times compared with the majority of derivatives or analogues, some adjustments to the gradient profile were made to better enable purity assessment comparison across samples. The data confirmed the improved chemical stability of the glucagon derivatives of this invention.

T1 sequence (P43220 24-463): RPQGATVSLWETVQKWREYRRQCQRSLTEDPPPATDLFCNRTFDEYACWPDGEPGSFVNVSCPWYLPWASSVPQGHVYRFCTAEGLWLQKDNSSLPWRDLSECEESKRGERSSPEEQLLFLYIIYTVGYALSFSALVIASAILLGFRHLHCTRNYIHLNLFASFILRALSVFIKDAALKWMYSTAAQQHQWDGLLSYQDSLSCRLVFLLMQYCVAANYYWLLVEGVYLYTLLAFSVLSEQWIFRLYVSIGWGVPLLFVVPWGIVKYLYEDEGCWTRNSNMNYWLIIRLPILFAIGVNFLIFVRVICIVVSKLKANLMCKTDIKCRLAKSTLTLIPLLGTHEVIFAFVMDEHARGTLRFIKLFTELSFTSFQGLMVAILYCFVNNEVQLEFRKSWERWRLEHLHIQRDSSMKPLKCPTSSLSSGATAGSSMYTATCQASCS

As to `CC(C)C[C@H](NC(=O)[C@H](CC(C)C)NC(=O)[C@H](Cc1c[nH]c2ccccc12)NC(=O)[C@H](CCC(N)=O)NC(=O)[C@@H](NC(=O)[C@H](Cc1ccccc1)NC(=O)[C@H](CCC(=O)O)NC(=O)[C@H](CCC(N)=O)NC(=O)[C@H](C)NC(=O)[C@H](C)NC(=O)[C@H](CCCCN)NC(=O)[C@H](CO)NC(=O)[C@H](CC(=O)O)NC(=O)[C@H](CC(C)C)NC(=O)[C@H](Cc1ccc(O)cc1)NC(=O)[C@H](CCCCN)NC(=O)[C@H](CO)NC(=O)[C@H](CC(C)C)NC(=O)[C@H](CC(=O)O)NC(=O)[C@H](CO)NC(=O)[C@@H](NC(=O)[C@H](Cc1ccccc1)NC(=O)[C@@H](NC(=O)CNC(=O)[C@H](CCC(N)=O)NC(=O)C(C)(C)NC(=O)[C@@H](N)Cc1c[nH]cn1)[C@@H](C)O)[C@@H](C)O)C(C)C)C(=O)N[C@@H](CC(N)=O)C(=O)N[C@@H](CCCCNC(=O)CC[C@H](NC(=O)CC[C@H](NC(=O)COCCOCCNC(=O)COCCOCCNC(=O)CC[C@H](NC(=O)CCCCCCCCCCCCCCCCC(=O)O)C(=O)O)C(=O)O)C(=O)O)C(N)=O` [Example 8, N^ε29-[(4S)-4-carboxy-4-[[(4S)-4-carboxy-4-[[2-[2-[2-[[2-[2-[2-[[(4S)-4-carboxy-4-(17-carboxyheptadecanoylamino)butanoyl]amino]ethoxy]ethoxy]acetyl]amino]ethoxy]ethoxy]acetyl]amino]butanoyl]amino]butanoyl]-[Aib2,Leu10,Lys17,Ala18,Glu21,Leu27,Lys29]-Glucagon amide] (H-H[Aib]QGTFTSDLSKYLDSKAAQEFVQWLLNK([γGlu-γGlu-AEEA-AEEA-γGlu-C18 diacid])-NH2; N-terminus assumed), the IC50 (usually the concentration that inhibits the measured activity by half) at human GLP-1 receptor amounted to 1.1 nM. The “Purity loss; 14 days at 37° C.” value in data set [1] is on record as 9%.
The corresponding values for `CC(C)C[C@H](NC(=O)[C@H](CC(=O)O)NC(=O)[C@H](CC(C)C)NC(=O)[C@H](Cc1ccc(O)cc1)NC(=O)[C@H](CCCCN)NC(=O)[C@H](CO)NC(=O)[C@H](CC(C)C)NC(=O)[C@H](CC(=O)O)NC(=O)[C@H](CO)NC(=O)[C@@H](NC(=O)[C@H](Cc1ccccc1)NC(=O)[C@@H](NC(=O)CNC(=O)[C@H](CCC(N)=O)NC(=O)C1(NC(=O)[C@@H](N)Cc2c[nH]cn2)CCC1)[C@@H](C)O)[C@@H](C)O)C(=O)N[C@@H](CCCNC(=N)N)C(=O)N[C@@H](CCCNC(=N)N)C(=O)N[C@@H](C)C(=O)N[C@@H](CCCNC(=N)N)C(=O)N[C@@H](CC(=O)O)C(=O)N[C@@H](Cc1ccccc1)C(=O)N[C@H](C(=O)N[C@@H](CCC(N)=O)C(=O)N[C@@H](Cc1c[nH]c2ccccc12)C(=O)N[C@@H](CC(C)C)C(=O)N[C@@H](CC(C)C)C(=O)N[C@@H](CCCCNC(=O)CC[C@H](NC(=O)CC[C@H](NC(=O)COCCOCCNC(=O)COCCOCCNC(=O)CC[C@H](NC(=O)CC[C@H](NC(=O)CCCCCCCCCCCCCCCCC(=O)O)C(=O)O)C(=O)O)C(=O)O)C(=O)O)C(=O)N[C@H](C(N)=O)[C@@H](C)O)C(C)C` [Example 45, N^ε28-[(4S)-4-carboxy-4-[[(4S)-4-carboxy-4-[[2-[2-[2-[[2-[2-[2-[[(4S)-4-carboxy-4-[[(4S)-4-carboxy-4-(17-carboxyheptadecanoylamino)butanoyl]amino]butanoyl]amino]ethoxy]ethoxy]acetyl]amino]ethoxy]ethoxy]acetyl]amino]butanoyl]amino]butanoyl]-[Acb2,Leu10,Leu16,Arg20,Leu27,Lys28]-Glucagon amide] (H-H[Ac4c]QGTFTSDLSKYLDLRRARDFVQWLLK([γGlu-γGlu-AEEA-AEEA-γGlu-γGlu-C18 diacid])T-NH2; N-terminus assumed) are 0.4 nM and 3%.
With `CC(C)C[C@H](NC(=O)[C@H](Cc1ccc(O)cc1)NC(=O)[C@H](CCCCN)NC(=O)[C@H](CO)NC(=O)[C@H](CC(C)C)NC(=O)[C@H](CC(=O)O)NC(=O)[C@H](CO)NC(=O)[C@@H](NC(=O)[C@H](Cc1ccccc1)NC(=O)[C@@H](NC(=O)CNC(=O)[C@H](CCC(N)=O)NC(=O)C(C)(C)NC(=O)[C@@H](N)Cc1c[nH]cn1)[C@@H](C)O)[C@@H](C)O)C(=O)N[C@@H](CC(=O)O)C(=O)N[C@@H](C)C(=O)N[C@@H](CCCNC(=N)N)C(=O)N[C@@H](CCCNC(=N)N)C(=O)N[C@@H](C)C(=O)N[C@@H](CCCNC(=N)N)C(=O)N[C@@H](CC(=O)O)C(=O)N[C@@H](Cc1ccccc1)C(=O)N[C@H](C(=O)N[C@@H](CCC(N)=O)C(=O)N[C@@H](Cc1c[nH]c2ccccc12)C(=O)N[C@@H](CC(C)C)C(=O)N[C@@H](CC(C)C)C(=O)N[C@@H](CC(N)=O)C(=O)N[C@@H](CCCCNC(=O)CC[C@H](NC(=O)CC[C@H](NC(=O)COCCOCCNC(=O)COCCOCCNC(=O)CC[C@H](NC(=O)CCCCCCCCCCCCCCCCC(=O)O)C(=O)O)C(=O)O)C(=O)O)C(N)=O)C(C)C` [Example 65] (H-H[Aib]QGTFTSDLSKYLDARRARDFVQWLLNK([γGlu-γGlu-AEEA-AEEA-γGlu-C18 diacid])-NH2; N-terminus assumed), the concentration for half-maximal inhibition (IC50) on human GLP-1 receptor is 0.5 nM. For the same compound, in data set [1], the “Purity loss; 14 days at 37° C.” value is 3%.
As to `CC(C)C[C@H](NC(=O)[C@H](Cc1ccc(O)cc1)NC(=O)[C@H](CCCCN)NC(=O)[C@H](CO)NC(=O)[C@H](CC(C)C)NC(=O)[C@H](CC(=O)O)NC(=O)[C@H](CO)NC(=O)[C@@H](NC(=O)[C@H](Cc1ccccc1)NC(=O)[C@@H](NC(=O)CNC(=O)[C@H](CCC(N)=O)NC(=O)C1(NC(=O)[C@@H](N)Cc2c[nH]cn2)CCC1)[C@@H](C)O)[C@@H](C)O)C(=O)N[C@@H](CCC(=O)O)C(=O)N[C@@H](CO)C(=O)N[C@@H](CCCNC(=N)N)C(=O)N[C@@H](CCCNC(=N)N)C(=O)N[C@@H](C)C(=O)N[C@@H](CCC(N)=O)C(=O)N[C@@H](CC(=O)O)C(=O)N[C@@H](Cc1ccccc1)C(=O)N[C@H](C(=O)N[C@@H](CCC(N)=O)C(=O)N[C@@H](Cc1c[nH]c2ccccc12)C(=O)N[C@@H](CC(C)C)C(=O)N[C@@H](CC(C)C)C(=O)N[C@@H](CCCCNC(=O)COCCOCCNC(=O)COCCOCCNC(=O)CC[C@H](NC(=O)CC[C@H](NC(=O)CC[C@H](NC(=O)CCCCCCCCCCCCCCCCC(=O)O)C(=O)O)C(=O)O)C(=O)O)C(=O)N[C@H](C(N)=O)[C@@H](C)O)C(C)C` [Example 63, N^ε28-[2-[2-[2-[[2-[2-[2-[[(4S)-4-carboxy-4-[[(4S)-4-carboxy-4-[[(4S)-4-carboxy-4-(17-carboxyheptadecanoylamino)butanoyl]amino]butanoyl]amino]butanoyl]amino]ethoxy]ethoxy]acetyl]amino]ethoxy]ethoxy]acetyl]-[Acb2,Leu10,Glu15,Leu27,Lys28]-Glucagon amide] (H-H[Ac4c]QGTFTSDLSKYLESRRAQDFVQWLLK([AEEA-AEEA-γGlu-γGlu-γGlu-C18 diacid])T-NH2; N-terminus assumed), in data set [1], the “Purity loss; 14 days at 37° C.” value came out at 1%.
Regarding `CC(C)C[C@H](NC(=O)[C@H](Cc1ccc(O)cc1)NC(=O)[C@H](CCCNC(=N)N)NC(=O)[C@H](CO)NC(=O)[C@H](CC(C)C)NC(=O)[C@H](CC(=O)O)NC(=O)[C@H](CO)NC(=O)[C@@H](NC(=O)[C@H](Cc1ccccc1)NC(=O)[C@@H](NC(=O)CNC(=O)[C@H](CCC(N)=O)NC(=O)C(C)(C)NC(=O)[C@@H](N)Cc1c[nH]cn1)[C@@H](C)O)[C@@H](C)O)C(=O)N[C@@H](CC(=O)O)C(=O)N[C@@H](C)C(=O)N[C@@H](CCCNC(=N)N)C(=O)N[C@@H](CCCNC(=N)N)C(=O)N[C@@H](C)C(=O)N[C@@H](CCCNC(=N)N)C(=O)N[C@@H](CC(=O)O)C(=O)N[C@@H](Cc1ccccc1)C(=O)N[C@H](C(=O)N[C@@H](CCC(N)=O)C(=O)N[C@@H](Cc1c[nH]c2ccccc12)C(=O)N[C@@H](CC(C)C)C(=O)N[C@@H](CC(C)C)C(=O)N[C@@H](CCCCNC(=O)CC[C@H](NC(=O)CC[C@H](NC(=O)CC[C@H](NC(=O)CCCCCCCCCCCCCCCCC(=O)O)C(=O)O)C(=O)O)C(=O)O)C(=O)N[C@H](C(N)=O)[C@@H](C)O)C(C)C` [Example 62, N^ε28-[(4S)-4-carboxy-4-[[(4S)-4-carboxy-4-[[(4S)-4-carboxy-4-(17-carboxyheptadecanoylamino)butanoyl]amino]butanoyl]amino]butanoyl]-[Aib2,Leu10,Arg12,Ala16,Arg20,Leu27,Lys28]-Glucagon amide] (H-H[Aib]QGTFTSDLSRYLDARRARDFVQWLLK([γGlu-γGlu-γGlu-C18 diacid])T-NH2; N-terminus assumed), on human GLP-1 receptor, the concentration for half-maximal inhibition (IC50) is 0.2 nM.
